The values that follow are results of earlier work, collected in patent US8211469B2, “Use of block copolymers based on vinyllactams and vinyl acetate as solubilizers” (priority 2006, dated 2012).

For the series the following is noted: 20° C.

As to `Fc1ccc([C@]2(Cn3cncn3)O[C@H]2c2ccccc2Cl)cc1` (racemic) [Epoxyconazole], the Solubility in water is on record as 6.63*10^−4 g/100 ml.
